{"source": "patent US20190211397A1", "about": "“INHIBITORS OF GPR132 FOR USE IN PREVENTING AND/OR TREATING CHEMOTHERAPY-INDUCED NEUROPATHIC PAIN” (Fraunhofer-Gesellschaft zur Foerderung der angewandten …, priority 2016, published 2019)", "tested_on": "wild type, TRPV1-deficient and G2A-deficient mice", "assay": "Mechanical pain thresholds after intraplantar 9-HODE in oxaliplatin-treated mice", "type": "in vivo", "conditions": "for mechanical pain thresholds after intraplantar 9-HODE: day eight after oxaliplatin treatment; for mechanical paw withdrawal latencies after intraplantar 9-HODE: day 8 of oxaliplatin treatment", "description": "In all behavioral tests the experimenter was unaware of the treatment and the genotype of the mice. For all behavioral experiments we used only 6-12 weeks old C57BU6N mice purchased from commercial breeding companies (Charles River, Sulzfeld, Germany, Janvier, Le Geneset-Saint-lsle, FR). G2A and TRPV1 knockout strains were from Jackson laboratories. All experiments followed the ethics guidelines for investigations in conscious animals and the procedures were approved by the local Ethics Committee.\nFor the intra plantar (i.pl.) treatment with 9-HODE (1 0 (JM) (Cayman), a volume of 10 (JI was injected in the mid-plantar area of the hindpaw. For the intraperitoneal (i.p.) treatment, 100 (JI of oxaliplatin (3 mg/kg, Tocris) were injection into the peritoneum. The control group animals were treated with the corresponding volumes of 0.9% saline solution.\nTo determine the mechanical thresholds of mice, a Dynamic Plantar Aesthesiometer (Ugo Basile, Comerio, Italy) was used. Mice were put on an elevated grid in test cages at least 2 h before the measurement to allow accommodation. Then, baseline measurement was performed before the treatment with Oxaliplatin or 9-HODE. Therefore, a steel rod pushed against the plantar side of the hind paw with linear ascending force (0-5 g over 10 s, in 0.5 g/s intervals) until a fast withdraw of the paw was observed The time between the first contact of the steel rod and the paw withdraw was measured in seconds (paw withdraw latency) and a cut-off time of 20 s was set.", "data": [{"smiles": "CCCCC/C=C\\C=C\\C(O)CCCCCCCC(=O)O", "note": "(stereo not shown) [9-HODE, 9-hydroxy-10E,12Z-octadecadienoic acid]", "values": [{"measurement": "mechanical pain thresholds after intraplantar 9-HODE", "setting": "G2A-deficient mice", "result": "not in G2A-deficient mice"}, {"measurement": "mechanical paw withdrawal latencies after intraplantar 9-HODE", "setting": "TRPV1-deficient mice", "result": "not in TRPV1-deficient mice"}, {"measurement": "mechanical paw withdrawal latencies after intraplantar 9-HODE", "setting": "wild type mice, ipsilateral paw (TRPV1 study)", "result": "strong reduction of mechanical paw withdrawal latencies"}, {"measurement": "mechanical pain thresholds after intraplantar 9-HODE", "setting": "wildtype mice, left hind paw (G2A study, 10 μM)", "result": "strong reduction of mechanical pain thresholds"}]}]}
